Here are results for one compound from patent US20100172944A1, “COMBINATION OF MONOSACCHARIDES WITH SUNSCREENS AND USE THEREOF” (L'OREAL, priority 2008, published 2010).

Assay [1] has as its system keratinocytes (HaCat line). As to the kind of experiment: Proliferation of keratinocytes in culture medium deficient in growth factors (Cyquant, Nile red, XTT markers). Type of assay: cell-based. Conditions: medium depleted in growth factors; compared with untreated control. On the procedure: The keratinocytes (HaCat line) are cultured under two conditions: whole defined culture medium (standard condition) and culture medium deficient in growth factors. This deficient medium gives rise to a controlled delay in cell proliferation. Under these conditions, it is then possible to measure the effects of compounds capable of compensating for the deficiency in growth factors of the culture medium and thus of relaunching the cell multiplication and/or of stimulating cell metabolism.
The keratinocyte proliferation is measured by means of three markers on the same cell population: the level of DNA, which is proportional to the number of cells (Cyquant probe), the level of constituent polar lipids of cell membranes (Nile red probe) and the mitochondrial respiration, which reflects the general cell metabolism (XTT probe).

Assay [2] relates to dermal fibroblasts of the reconstructed skin. Put plainly: Proliferation of fibroblasts in whole reconstructed skin (propidium iodide nuclei count on frozen sections). Conditions: 5 mM; within 48 hours of treatment; vs control skin. The format is cell-based, human. The source says: Rhamnose was studied on a model of whole reconstructed skin in order to measure its anti-ageing efficacy on the dermal compartment.
Briefly, the model of reconstructed skin used is that described by Bell et al. (Bell E. et al., The reconstitution of living skin, J. Invest. Dermatol., 1983, July; 81): it includes a dermal equivalent on which is reconstructed a multistratified epidermis; the dermal equivalent is manufactured from acid-soluble collagen, culture medium containing serum and normal adult human fibroblasts. After 5 days of shrinkage, this equivalent is inoculated with keratinocytes and then cultured for 6 days in immersion and for 7 days in emersion in order to obtain a multistratified and differentiated epidermis having a horny layer.
The reconstructed skin is treated with 5 mM rhamnose for 2 days and 5 days in the culture medium; after the treatment, the reconstructed skins are included in Tissue Tek in order to produce frozen sections 7 μm thick with a cryostat. […] Three frozen sections are prepared at random on each reconstructed skin; on each section, two microscopic fields (25× objective lens) are analysed by fluorescence microscopy and photographed. The dermal fibroblasts are thus counted for each reconstructed skin on six images in total representing the six microscopic fields considered. […]

A further assay has as its system type I procollagen. Put plainly: Synthesis of procollagen 1 in reconstructed skin (indirect immunofluorescence). The format is cell-based, human. Conditions: for procollagen 1 synthesis: reconstructed skin. On the procedure:
Conventional detection via indirect immunofluorescence of type I procollagen in the dermis of the reconstructed skin was also performed on other series of frozen sections (anti-procoll 1 antibody (MAB 1912 Millipore)+FTIC-coupled conjugate (112-095-068 Jackson Immunoresearch)). In order to obtain bearings within the cutaneous architecture during the microscopic examination of the sections, the cell nuclei of the keratinocytes and fibroblasts are localized by staining them with propidium iodide, as described above. Three frozen sections are prepared at random on each reconstructed skin and on each section, and two microscopic fields (25× objective lens) are analysed by fluorescence microscopy and photographed. The levels of fluorescence proportional to the amount of type I procollagen are compared between the control skin and the skin treated with rhamnose.

With `C[C@H](O)[C@H](O)[C@@H](O)[C@@H](O)C=O` [rhamnose, Rhamnose], the keratinocyte proliferation result in assay [1] is “activate keratinocyte proliferation”. Moreover, in assay [2], the “growth of the dermal fibroblasts of the reconstructed skin” value was “induces stimulation of growth”. Moreover, in the assay on type I procollagen (1 mM for 120 hours, compared with control skin (FIG. 4)), the “green fluorescence proportional to the amount of type I procollagen” value is listed as “marked increase in green fluorescence”. For the same compound, the “procollagen 1 synthesis” value in the assay with type I procollagen (1 mM) and with type I procollagen (5 mM) was “stimulation of procollagen 1 synthesis” in each case.
